According to paper PMC6528465 (ACS infectious diseases, 2018):

Test system: Mtb K204
Assay type: cell-based, Mycobacterium tuberculosis
Settings: no inhibitor

Compound: NC[C@H]1O[C@H](O[C@H]2[C@H](O)[C@@H](O[C@H]3O[C@H](CO)[C@@H](O)[C@H](N)[C@H]3O)[C@H](N)C[C@@H]2N)[C@H](O)[C@@H](O)[C@@H]1O [KAN, kanamycin]
- K204 MICKAN: >10 µg/mL
